Data reported in ChEMBL document CHEMBL1201862, “PubChem BioAssay data set” (2004).
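1) Cells in 96-well plates. 2) Compound, 48 h, 5 concentrations. 3) Linear interpolation between surrounding doses. 4) Unreached endpoint = highest concentration. Here, GI50 denotes the concentration required for 50% inhibition of growth.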 The source made the active and inactive calls. Cut-off read from the data, not from the text of the source: active = GI50 up to about 1.1 µM and inactive = higher. Where a SMILES comes first, the peptide text is derived from it. [ ]: non-standard residue; d: D form. Phe(4-Cl) = N[CH](Cc1ccc(Cl)cc1)C(=O)O

Legend:
Experiment in all cases: NCI anticancer screen, dose series, 48 h
KM12 = test system: KM12
COLO 205 = test system: COLO 205
786-0 = test system: 786-0
CCRF-CEM = test system: CCRF-CEM
SF-295 = test system: SF-295
HCT-15 = test system: HCT-15
SN12C = test system: SN12C
RXF 393 = test system: RXF 393
SNB-19 = test system: SNB-19
IGROV-1 = test system: IGROV-1
MOLT-4 = test system: MOLT-4
SNB-75 = test system: SNB-75
LOX IMVI = test system: LOX IMVI
HOP-92 = test system: HOP-92
OVCAR-5 = test system: OVCAR-5
TK-10 = test system: TK-10
SR = test system: SR
NCI/ADR-RES = test system: NCI/ADR-RES

SMILES | GI50 (KM12) | GI50 (COLO 205) | GI50 (786-0) | GI50 (CCRF-CEM) | GI50 (SF-295) | GI50 (HCT-15) [µM] | GI50 (SN12C) | GI50 (RXF 393) | GI50 (SNB-19) | GI50 (IGROV-1) | GI50 (MOLT-4) | GI50 (SNB-75) | GI50 (LOX IMVI) | GI50 (HOP-92) | GI50 (OVCAR-5) | GI50 (TK-10) | GI50 (SR) | GI50 (NCI/ADR-RES)
CC(O)C(NC(=O)C(Cc1ccccc1)NC(=O)C(NC(=O)C(CCCCN)NC(=O)C(Cc1c[nH]c2ccccc12)NC(=O)C(Cc1ccc(O)cc1)NC(=O)C(Cc1ccc(Cl)cc1)NC(=O)C(N)Cc1ccccc1)C(C)O)C(N)=O (stereo unspecified) (H-F[Phe(4-Cl)]YWKTFT-NH2; configuration not given here) | 13.5 µM (inactive) | 25.9 µM (inactive) | 22.4 µM (inactive) | 15.8 µM (inactive) | 8.53 µM (inactive) | 17.9 | 41.8 µM (inactive) | 16 µM (inactive) | 18.4 µM (inactive) | 19.9 µM (inactive) | 25.9 µM (inactive) | 21 µM (inactive) |  |  |  |  |  | 
CC1=NN(C(=O)c2ccc(Cl)cc2)C(=O)/C1=C/c1ccc(O)cc1 | > 100 µM (inactive) | > 100 µM (inactive) | > 100 µM (inactive) | > 100 µM (inactive) | > 100 µM (inactive) | > 100 | > 100 µM (inactive) | > 100 µM (inactive) | > 100 µM (inactive) | > 100 µM (inactive) | > 100 µM (inactive) |  | > 100 µM (inactive) | > 100 µM (inactive) | > 100 µM (inactive) | > 100 µM (inactive) |  | 
COC(=O)C1(F)C(=O)NC(=O)NC1OC (stereo unspecified) | 21.6 µM (inactive) | 68.5 µM (inactive) | 39.7 µM (inactive) | 3.08 µM (inactive) | > 100 µM (inactive) | 22.9 | 69 µM (inactive) |  | > 100 µM (inactive) | > 100 µM (inactive) | > 100 µM (inactive) | 39.2 µM (inactive) | 11.9 µM (inactive) | 45.7 µM (inactive) | > 100 µM (inactive) | > 100 µM (inactive) | > 100 µM (inactive) | 
COc1ccc2c(c1)[n+]([O-])c(C(=O)CC(=O)C(=O)Nc1cccc(Cl)c1C)c(C)[n+]2[O-] | > 100 µM (inactive) | 53.7 µM (inactive) | > 100 µM (inactive) | 21.7 µM (inactive) | > 100 µM (inactive) | > 100 | > 100 µM (inactive) | > 100 µM (inactive) | > 100 µM (inactive) | > 100 µM (inactive) | 49.4 µM (inactive) | > 100 µM (inactive) | > 100 µM (inactive) | > 100 µM (inactive) | > 100 µM (inactive) | > 100 µM (inactive) | 34 µM (inactive) | 
CCCCC#COP(=O)(OCC)OCC | > 100 µM (inactive) | > 100 µM (inactive) | > 100 µM (inactive) | > 100 µM (inactive) | > 100 µM (inactive) | > 100 | > 100 µM (inactive) |  | > 100 µM (inactive) | > 100 µM (inactive) | > 100 µM (inactive) |  | > 100 µM (inactive) |  | > 100 µM (inactive) | > 100 µM (inactive) | > 100 µM (inactive) | 
CCOP(=O)(OCC)/C(C#N)=C/c1ccco1 | > 100 µM (inactive) | > 100 µM (inactive) | > 100 µM (inactive) | > 100 µM (inactive) | > 100 µM (inactive) | > 100 | > 100 µM (inactive) |  |  | > 100 µM (inactive) | > 100 µM (inactive) | > 100 µM (inactive) | > 100 µM (inactive) | > 100 µM (inactive) | > 100 µM (inactive) | > 100 µM (inactive) | > 100 µM (inactive) | 
CN(C)CC1CCC(=C2CCCC2)C1=O (stereo unspecified) | 10.9 µM (inactive) | 14.9 µM (inactive) | 7.52 µM (inactive) | 3.03 µM (inactive) | > 100 µM (inactive) | 5.65 | 10.7 µM (inactive) | 10.5 µM (inactive) | > 63.7 µM (inactive) | 17.6 µM (inactive) | 2.76 µM (inactive) | 16.2 µM (inactive) | 16.6 µM (inactive) | 5 µM (inactive) | 17 µM (inactive) | 11.5 µM (inactive) | 4.47 µM (inactive) | 
COC(=O)CCC(NC(=S)N/N=C/c1ccco1)C(=O)OC (stereo unspecified) | > 100 µM (inactive) | > 100 µM (inactive) | > 100 µM (inactive) | > 100 µM (inactive) | > 100 µM (inactive) | > 100 | > 100 µM (inactive) | > 100 µM (inactive) | > 100 µM (inactive) | > 100 µM (inactive) |  | > 100 µM (inactive) | > 100 µM (inactive) |  | > 100 µM (inactive) | > 100 µM (inactive) | > 100 µM (inactive) | 
COc1ccc2c(c1)NC1(O)c3ccccc3C(=O)C21O (stereo unspecified) | > 100 µM (inactive) | > 100 µM (inactive) | > 100 µM (inactive) | > 100 µM (inactive) | > 100 µM (inactive) |  | > 100 µM (inactive) |  | > 100 µM (inactive) | > 100 µM (inactive) | > 100 µM (inactive) | > 100 µM (inactive) | > 100 µM (inactive) | > 100 µM (inactive) |  | > 100 µM (inactive) | > 100 µM (inactive) | 
CS(=O)(=O)NNS(=O)(=O)c1ccc(Cl)cc1 | > 100 µM (inactive) | > 100 µM (inactive) | > 100 µM (inactive) | 29.9 µM (inactive) | > 100 µM (inactive) | > 100 | > 100 µM (inactive) | 26.1 µM (inactive) | > 100 µM (inactive) | > 100 µM (inactive) | 55.7 µM (inactive) | > 100 µM (inactive) | > 100 µM (inactive) |  |  | > 100 µM (inactive) | 62.8 µM (inactive) | 
CCOC(=O)c1c(-c2ccccc2)oc(-c2ccccc2)c1C(=O)OCC | > 100 µM (inactive) | 99.1 µM (inactive) | > 100 µM (inactive) | 41.1 µM (inactive) | > 100 µM (inactive) |  | > 100 µM (inactive) | > 100 µM (inactive) | > 100 µM (inactive) | > 100 µM (inactive) | 48.1 µM (inactive) | > 100 µM (inactive) | > 100 µM (inactive) | > 100 µM (inactive) | > 100 µM (inactive) | > 100 µM (inactive) | 68.2 µM (inactive) | 
Cc1ccc2c(c1)C(c1cccc3ccccc13)OC2=O (stereo unspecified) | 99.1 µM (inactive) | > 100 µM (inactive) | 56.9 µM (inactive) | > 100 µM (inactive) | 61 µM (inactive) | > 100 | > 100 µM (inactive) | 27.8 µM (inactive) | 64.7 µM (inactive) | > 100 µM (inactive) | > 100 µM (inactive) | 36.4 µM (inactive) | > 100 µM (inactive) |  | > 100 µM (inactive) | 31.6 µM (inactive) | > 100 µM (inactive) | 
COC(=N)c1csc(C2OC(CO)C(O)C2O)n1 (stereo unspecified) | > 100 µM (inactive) | > 100 µM (inactive) | > 100 µM (inactive) | 86.5 µM (inactive) | > 100 µM (inactive) | > 100 | > 100 µM (inactive) |  | > 100 µM (inactive) | > 100 µM (inactive) | 61.9 µM (inactive) |  | > 100 µM (inactive) | > 100 µM (inactive) | > 100 µM (inactive) | > 100 µM (inactive) |  | 
Cc1ccccc1/N=C/c1ccc(N(CCC#N)S(=O)(=O)c2ccccc2)cc1 | > 100 µM (inactive) | > 100 µM (inactive) | > 100 µM (inactive) | > 100 µM (inactive) | > 100 µM (inactive) | > 100 | > 100 µM (inactive) | > 100 µM (inactive) | > 100 µM (inactive) | > 100 µM (inactive) | > 100 µM (inactive) | > 100 µM (inactive) | > 100 µM (inactive) | > 100 µM (inactive) | > 100 µM (inactive) | > 100 µM (inactive) | > 100 µM (inactive) | 
CN(C(=O)C1CCCCCC1=O)c1ccccc1Cl (stereo unspecified) | > 100 µM (inactive) | > 100 µM (inactive) | > 100 µM (inactive) |  | > 100 µM (inactive) | > 100 | > 100 µM (inactive) | > 100 µM (inactive) | > 100 µM (inactive) | > 100 µM (inactive) | > 100 µM (inactive) | > 100 µM (inactive) | > 100 µM (inactive) | > 100 µM (inactive) | > 100 µM (inactive) | > 100 µM (inactive) |  | > 100 µM (inactive)
COC1=CC2(C=CC1=O)c1cc(OC)c(OC)cc1CCN2C(=O)c1ccccc1 (stereo unspecified) | > 100 µM (inactive) | > 100 µM (inactive) | > 100 µM (inactive) | > 100 µM (inactive) | > 100 µM (inactive) | > 100 | > 100 µM (inactive) | > 100 µM (inactive) | > 100 µM (inactive) | > 100 µM (inactive) | > 100 µM (inactive) | > 100 µM (inactive) | > 100 µM (inactive) | > 100 µM (inactive) |  | > 100 µM (inactive) |  | 
CCCCCCCC1(c2ccc(N)cc2)CCC(=O)NC1=O (stereo unspecified) | 48.4 µM (inactive) | 21.9 µM (inactive) | 28.4 µM (inactive) | > 10 µM (inactive) | 30.4 µM (inactive) | 36.8 | 30 µM (inactive) | 28 µM (inactive) | 47.4 µM (inactive) | 32.3 µM (inactive) | 23.8 µM (inactive) | 22.5 µM (inactive) | 33 µM (inactive) | 15.2 µM (inactive) | 31.6 µM (inactive) | 49.7 µM (inactive) |  | 
CCCCCC1C2C(=O)NC(=O)C1C(=O)NC2=O (stereo unspecified) | > 100 µM (inactive) | > 100 µM (inactive) | > 100 µM (inactive) | > 100 µM (inactive) | > 100 µM (inactive) | > 100 | > 100 µM (inactive) | > 100 µM (inactive) | > 100 µM (inactive) | > 100 µM (inactive) | > 100 µM (inactive) | > 100 µM (inactive) | > 100 µM (inactive) | > 100 µM (inactive) | > 100 µM (inactive) | > 100 µM (inactive) |  | 
